Experimental data: PubChem BioAssay AID1963843 (Molecular Pharmacology Branch, DTP, NCI, 2024)

System: 616215-338-R-J1-PDC complex spheroid viability
Test: Anticancer human tumor 616215-338-R-J1-PDC patient-derived colon adenocarcinoma cell line growth inhibition [POLQ]
Conditions: for IC50: curve of first compound; for viability, T/C: stronger effect = lower value
Method in brief: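 PDC + HUVEC + MSC complex spheroids; POLQ inhibitors ± partner drugs; top conc. at/near clinical Cmax, else 10 microM (SN-38 1 microM), half-log dilutions; 37 degrees C, 5% CO2.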

[1] = second compound 0.0316 µM, first compound 0.0316 µM
[2] = second compound 0.0316 µM, first compound 0.1 µM
[3] = second compound 0.0316 µM, first compound 0.316 µM
[4] = second compound 0.0316 µM, first compound 1 µM
[5] = second compound 0.0316 µM, first compound 3.16 µM
[6] = second compound 0.0316 µM, first compound 10 µM
[7] = second compound 0.1 µM, first compound 0.0316 µM
[8] = second compound 0.1 µM, first compound 0.1 µM
[9] = second compound 0.1 µM, first compound 0.316 µM
[10] = second compound 0.1 µM, first compound 1 µM
[11] = second compound 0.1 µM, first compound 3.16 µM
[12] = second compound 0.1 µM, first compound 10 µM
[13] = second compound 0.316 µM, first compound 0.0316 µM
[14] = second compound 0.316 µM, first compound 0.1 µM
[15] = second compound 0.316 µM, first compound 0.316 µM
[16] = second compound 0.316 µM, first compound 1 µM
[17] = second compound 0.316 µM, first compound 3.16 µM
[18] = second compound 0.316 µM, first compound 10 µM
[19] = second compound 1 µM, first compound 0.0316 µM
[20] = second compound 1 µM, first compound 0.1 µM
[21] = second compound 1 µM, first compound 0.316 µM
[22] = second compound 1 µM, first compound 1 µM
[23] = second compound 1 µM, first compound 3.16 µM
[24] = second compound 1 µM, first compound 10 µM
[25] = second compound 3.16 µM, first compound 0.0316 µM
[26] = second compound 3.16 µM, first compound 0.1 µM
[27] = second compound 3.16 µM, first compound 0.316 µM
[28] = second compound 3.16 µM, first compound 1 µM
[29] = second compound 3.16 µM, first compound 3.16 µM
[30] = second compound 3.16 µM, first compound 10 µM
[31] = second compound 10 µM, first compound 0.0316 µM
[32] = second compound 10 µM, first compound 0.1 µM
[33] = second compound 10 µM, first compound 0.316 µM
[34] = second compound 10 µM, first compound 1 µM
[35] = second compound 10 µM, first compound 3.16 µM
[36] = second compound 10 µM, first compound 10 µM
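Note: spheroids exposed to compounds for one week before readout.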
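Throughout, for viability, T/C: percent viability relative to DMSO vehicle wells taken as 100%.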

For `COc1cccc2c1C(=O)c1c(O)c3c(c(O)c1C2=O)CC(O)(C(=O)CO)CC3OC1CC(N)C(O)C(C)O1` (stereo not drawn) + Cc1cccc(N(C)C(=O)C2C(O)CCN2c2nc(C)cc(C(F)(F)F)c2C#N)c1, the IC50 (second compound 0.0316 µM) was 1070 nM, the IC50 (second compound 0.1 µM) was 1000 nM and the IC50 (second compound 0.316 µM) was 785 nM. The IC50 (second compound 1 µM) was 688 nM, the IC50 (second compound 3.16 µM) was 665 nM and the IC50 (second compound 10 µM) was 823 nM. It also gave a viability, T/C [1] of 95.8%, a viability, T/C [2] of 92.5% and a viability, T/C [3] of 79.8%. For the same compound, the viability, T/C [4] was 55.9%, the viability, T/C [5] was 6.78% and the viability, T/C [6] was 0.53%. For the same compound, the viability, T/C [7] was 109%, the viability, T/C [8] was 92.1% and the viability, T/C [9] was 80%. The viability, T/C [10] was 57.5%, the viability, T/C [11] was 6.89% and the viability, T/C [12] was 0.26%. It also gave a viability, T/C [13] of 106%, a viability, T/C [14] of 83.4% and a viability, T/C [15] of 69.2%. It also gave a viability, T/C [16] of 56.7%, a viability, T/C [17] of 3.48% and a viability, T/C [18] of 0.22%. For the same compound, the viability, T/C [19] was 111%, the viability, T/C [20] was 85.8% and the viability, T/C [21] was 71.2%. The viability, T/C [22] was 48.3%, the viability, T/C [23] was 3.44% and the viability, T/C [24] was 0.22%. The viability, T/C [25] was 96.6%, the viability, T/C [26] was 79.9% and the viability, T/C [27] was 65.5%. It also gave a viability, T/C [28] of 48.9%, a viability, T/C [29] of 1.58% and a viability, T/C [30] of 0.25%. It also gave a viability, T/C [31] of 83.2%, a viability, T/C [32] of 82.6% and a viability, T/C [33] of 76.7%. It also gave a viability, T/C [34] of 44.7%, a viability, T/C [35] of 0.88% and a viability, T/C [36] of 0.31%.

With `CCc1c2c(nc3ccc(O)cc13)-c1cc3c(c(=O)n1C2)COC(=O)[C@]3(O)CC` + COC1C(OC(N)=O)C(O)C(Oc2ccc3c(O)c(NC(=O)c4ccc(O)c(CC=C(C)C)c4)c(=O)oc3c2C)OC1(C)C the IC50 (second compound 0.0316 µM) was 93.7 nM, the IC50 (second compound 0.1 µM) was 87.2 nM and the IC50 (second compound 0.316 µM) was 92.6 nM. The IC50 (second compound 1 µM) was 72.1 nM, the IC50 (second compound 3.16 µM) was 49.3 nM and the IC50 (second compound 10 µM) was 30.7 nM. It also gave a viability, T/C (second compound 0.0316 µM, first compound 0.00316 µM) of 110%, a viability, T/C (second compound 0.0316 µM, first compound 0.01 µM) of 87.6% and a viability, T/C [1] of 70.6%. It also gave a viability, T/C [2] of 49.2%, a viability, T/C [3] of 30.4% and a viability, T/C [4] of 20.2%. It also gave a viability, T/C (second compound 0.1 µM, first compound 0.00316 µM) of 103%, a viability, T/C (second compound 0.1 µM, first compound 0.01 µM) of 95.4% and a viability, T/C [7] of 73.5%. For the same compound, the viability, T/C [8] was 45.8%, the viability, T/C [9] was 30.1% and the viability, T/C [10] was 19.2%. For the same compound, the viability, T/C (second compound 0.316 µM, first compound 0.00316 µM) was 107%, the viability, T/C (second compound 0.316 µM, first compound 0.01 µM) was 95.7% and the viability, T/C [13] was 67.8%. The viability, T/C [14] was 50%, the viability, T/C [15] was 30.8% and the viability, T/C [16] was 18.5%. For the same compound, the viability, T/C (second compound 1 µM, first compound 0.00316 µM) was 103%, the viability, T/C (second compound 1 µM, first compound 0.01 µM) was 81.3% and the viability, T/C [19] was 60.7%. The viability, T/C [20] was 47.9%, the viability, T/C [21] was 28.9% and the viability, T/C [22] was 19.6%. The viability, T/C (second compound 3.16 µM, first compound 0.00316 µM) was 106%, the viability, T/C (second compound 3.16 µM, first compound 0.01 µM) was 87.2% and the viability, T/C [25] was 59.7%. It also gave a viability, T/C [26] of 35.1%, a viability, T/C [27] of 24.1% and a viability, T/C [28] of 20.6%. The viability, T/C (second compound 10 µM, first compound 0.00316 µM) was 86.7%, the viability, T/C (second compound 10 µM, first compound 0.01 µM) was 65.5% and the viability, T/C [31] was 53.7%. It also gave a viability, T/C [32] of 32.5%, a viability, T/C [33] of 21.7% and a viability, T/C [34] of 21.1%.

`CC1COCCN1c1cc(-c2ccnn2C)c2ccnc(-c3ccn[nH]3)c2n1` (stereo not drawn) + Cc1cccc(N(C)C(=O)C2C(O)CCN2c2nc(C)cc(C(F)(F)F)c2C#N)c1 was tested, and the IC50 (second compound 0.0316 µM) was > 10000 nM, the IC50 (second compound 0.1 µM) was > 10000 nM and the IC50 (second compound 0.316 µM) was > 10000 nM. The IC50 (second compound 1 µM) was 2790 nM, the IC50 (second compound 3.16 µM) was 1990 nM and the IC50 (second compound 10 µM) was 1240 nM. For the same compound, the viability, T/C [1] was 104%, the viability, T/C [2] was 110% and the viability, T/C [3] was 76.7%. It also gave a viability, T/C [4] of 66.2%, a viability, T/C [5] of 49.4% and a viability, T/C [6] of 50.6%. The viability, T/C [7] was 103%, the viability, T/C [8] was 100% and the viability, T/C [9] was 69.5%. It also gave a viability, T/C [10] of 61.8%, a viability, T/C [11] of 50.1% and a viability, T/C [12] of 50.5%. It also gave a viability, T/C [13] of 107%, a viability, T/C [14] of 91.1% and a viability, T/C [15] of 66.3%. For the same compound, the viability, T/C [16] was 57.4%, the viability, T/C [17] was 52.4% and the viability, T/C [18] was 53%. It also gave a viability, T/C [19] of 101%, a viability, T/C [20] of 91% and a viability, T/C [21] of 71.9%. It also gave a viability, T/C [22] of 57.1%, a viability, T/C [23] of 53% and a viability, T/C [24] of 40.8%. For the same compound, the viability, T/C [25] was 114%, the viability, T/C [26] was 95.2% and the viability, T/C [27] was 72.2%. It also gave a viability, T/C [28] of 54%, a viability, T/C [29] of 44.1% and a viability, T/C [30] of 47.9%. It also gave a viability, T/C [31] of 111%, a viability, T/C [32] of 90.6% and a viability, T/C [33] of 68%. The viability, T/C [34] was 49.2%, the viability, T/C [35] was 47.5% and the viability, T/C [36] was 36.8%.

For `COc1cccc2c1C(=O)c1c(O)c3c(c(O)c1C2=O)CC(O)(C(=O)CO)CC3OC1CC(N)C(O)C(C)O1` (stereo not drawn) + Nc1ccc(C#CCN(C(=O)Cc2ncc(C(F)(F)F)cc2C(F)(F)F)c2ccc(F)cc2)nn1, the IC50 (second compound 0.0316 µM) was 124 nM, the IC50 (second compound 0.1 µM) was < 31.6 nM and the IC50 (second compound 0.316 µM) was 89.2 nM. The IC50 (second compound 1 µM) was 79.2 nM, the IC50 (second compound 3.16 µM) was 58.4 nM and the IC50 (second compound 10 µM) was < 31.6 nM. For the same compound, the viability, T/C [1] was 53.5%, the viability, T/C [2] was 50.3% and the viability, T/C [3] was 43.8%. The viability, T/C [4] was 20.9%, the viability, T/C [5] was 1.47% and the viability, T/C [6] was 1.5%. For the same compound, the viability, T/C [7] was 52%, the viability, T/C [8] was 46.5% and the viability, T/C [9] was 42.4%. For the same compound, the viability, T/C [10] was 26.1%, the viability, T/C [11] was 1.84% and the viability, T/C [12] was 0.12%. It also gave a viability, T/C [13] of 61.7%, a viability, T/C [14] of 41.8% and a viability, T/C [15] of 40.4%. It also gave a viability, T/C [16] of 22.4%, a viability, T/C [17] of 0.9% and a viability, T/C [18] of 0.55%. The viability, T/C [19] was 65.2%, the viability, T/C [20] was 40.4% and the viability, T/C [21] was 35.9%. It also gave a viability, T/C [22] of 23.1%, a viability, T/C [23] of 2.85% and a viability, T/C [24] of 0.37%. The viability, T/C [25] was 52.8%, the viability, T/C [26] was 48% and the viability, T/C [27] was 35.2%. It also gave a viability, T/C [28] of 23.5%, a viability, T/C [29] of 1.29% and a viability, T/C [30] of 0.18%. It also gave a viability, T/C [31] of 46.3%, a viability, T/C [32] of 38.1% and a viability, T/C [33] of 27.4%. The viability, T/C [34] was 14.9%, the viability, T/C [35] was 0.84% and the viability, T/C [36] was 0.33%.
